Measured values reported in patent US5332731A, “Cephalosporin derivatives” (Meiji Seika Kaisha, Ltd., priority 1989, dated 1994).
≈ marks a conversion by molar mass, not a printed value.

Key:
Assay in all cases: antibacterial activity, MIC by standard serial dilution method
Format in all cases: cell-based
Escherichia coli GN206 = tested on: Escherichia coli GN206
Excerpt: (§1) Antibacterial activity of Compounds Nos. 1, 3, 5, 7, 9, 11, 13, 15, 17, 19, 21, 23, 25, 27, 29, 31, 33, 35 and 37 indentified hereinbefore which are the particular examples of the new cephalosporin derivative of general formula (I) according to this invention and which are in the form of the free carboxylic acid was estimated by determining the minimum inhibitory concentrations (MIC., μg/ml) of these compounds against a variety of bacteria according to a standard serial dilution method.

Escherichia coli 255 = tested on: Escherichia coli 255
Excerpt: as §1

[1] = tested on: Escherichia coli NIHJ JC-2; conditions: NIHJJC2
Excerpt: as §1

[2] = tested on: Entrobacter faecalis W-73
Excerpt: as §1

[3] = tested on: Marganella morganii 1510/S-1
Excerpt: as §1

[4] = tested on: Citrobacter freundii GN346
Excerpt: as §1

[5] = tested on: Enterobacter cloacae G-0008; conditions: G0008
Excerpt: as §1

[6] = tested on: Enterobacter hirae ATCC8043
Excerpt: as §1

[7] = tested on: Serratia marcescens GN10857
Excerpt: as §1

[8] = tested on: Escherichia coli W3630 RGN823; conditions: W3630RGN823
Excerpt: as §1

[9] = tested on: Serratia marcescens No. 1
Excerpt: as §1

[10] = tested on: Staphylococcus aureus 209P JC-1
Excerpt: as §1

[11] = tested on: Citrobacter freundii GN346/16
Excerpt: as §1

Proteus vulgaris GN76 = tested on: Proteus vulgaris GN76
Excerpt: as §1

[12] = tested on: Staphylococcus epidermidis ATCC14990
Excerpt: as §1

[13] = tested on: Pseudomonas aeruginosa GN10362
Excerpt: as §1

[14] = tested on: Klebsiella pneumoniae PCI602
Excerpt: as §1

[15] = tested on: Proteus vulgaris GN76/C-1
Excerpt: as §1

Escherichia coli 255/S-1 = conditions: 255/S1
Excerpt: as §1

[16] = tested on: Enterobacter cloacae GN7471
Excerpt: as §1

[17] = tested on: Klebsiella pneumoniae GN69
Excerpt: as §1

Marganella morganii 1510 = tested on: Marganella morganii 1510
Excerpt: as §1

Structure (SMILES)	MIC (Escherichia coli GN206) [µg/mL]	MIC (Escherichia coli 255) [µg/mL]	MIC [1] [µg/mL]	MIC [2] [µg/mL]	MIC [3] [µg/mL]	MIC [4] [µg/mL]	MIC [5] [µg/mL]	MIC [6] [µg/mL]	MIC [7] [µg/mL]	MIC [8] [µg/mL]	MIC [9] [µg/mL]	MIC [10] [µg/mL]	MIC [11] [µg/mL]	MIC (Proteus vulgaris GN76) [µg/mL]	MIC [12] [µg/mL]	MIC [13] [µg/mL]	MIC [14] [µg/mL]	MIC [15] [µg/mL]	MIC (Escherichia coli 255/S-1) [µg/mL]	MIC [16] [µg/mL]	further results
Nc1nc(/C(=N/O)C(=O)NC2C(=O)N3C(C(=O)O)=C(SC4COCOC4)CS[C@H]23)cs1 (stereo partly drawn) [Compound No. 21, 7 - [(Z) -2-(2-aminothiazol-4-yl) -2-hydroxyiminoacetamido]-3-(1,3-dioxan-5-yl)thio-3-cephem-4-carboxylic acid]	6.25 (≈ 12.8 µM)	25 (≈ 51.3 µM)	0.2 (≈ 0.41 µM)	12.5 (≈ 25.6 µM)	0.1 (≈ 0.205 µM)	> 100	0.78 (≈ 1.6 µM)	3.13 (≈ 6.42 µM)	> 100	3.13 (≈ 6.42 µM)	3.13 (≈ 6.42 µM)	0.2 (≈ 0.41 µM)	3.13 (≈ 6.42 µM)	0.78 (≈ 1.6 µM)	0.2 (≈ 0.41 µM)	> 100	0.2 (≈ 0.41 µM)	12.5 (≈ 25.6 µM)	0.2 (≈ 0.41 µM)	50 (≈ 103 µM)	MIC [17]: 0.2 µg/mL (≈ 0.41 µM); MIC (Marganella morganii 1510): 12.5 µg/mL (≈ 25.6 µM)
CO/N=C(\C(=O)NC1C(=O)N2C(C(=O)O)=C(SCC3CCCCO3)CS[C@H]12)c1csc(N)n1 (stereo partly drawn) [Compound No. 23, 7-[(Z)-2-(2-aminothiazol-4-yl)-2-methoxyiminoacetamido]-3-(tetrahydropyran-2-yl)methylthio-3-cephem-4-carboxylic acid]	6.25 (≈ 12.2 µM)	50 (≈ 97.3 µM)	3.13 (≈ 6.09 µM)	> 100	0.78 (≈ 1.52 µM)	> 100	3.13 (≈ 6.09 µM)	25 (≈ 48.7 µM)	50 (≈ 97.3 µM)	3.13 (≈ 6.09 µM)	1.56 (≈ 3.04 µM)	3.13 (≈ 6.09 µM)	6.25 (≈ 12.2 µM)	0.39 (≈ 0.759 µM)	3.13 (≈ 6.09 µM)	100 (≈ 195 µM)	3.13 (≈ 6.09 µM)	1.56 (≈ 3.04 µM)	3.13 (≈ 6.09 µM)	100 (≈ 195 µM)	MIC [17]: 1.56 µg/mL (≈ 3.04 µM); MIC (Marganella morganii 1510): 50 µg/mL (≈ 97.3 µM)
Nc1nc(/C(=N/O)C(=O)NC2C(=O)N3C(C(=O)O)=C(SCC4CCCCO4)CS[C@H]23)cs1 (stereo partly drawn) [Compound No. 25, 7-[(Z)-2-(2-aminothiazol-4-yl)-2-hydroxyiminoacetamido]-3-(tetrahydropyran-2-yl)methylthio-3-cephem-4-carboxylic acid]	12.5 (≈ 25 µM)	100 (≈ 200 µM)	12.5 (≈ 25 µM)	12.5 (≈ 25 µM)	0.78 (≈ 1.56 µM)	> 100	25 (≈ 50 µM)	12.5 (≈ 25 µM)	> 100	12.5 (≈ 25 µM)	6.25 (≈ 12.5 µM)	1.56 (≈ 3.12 µM)	12.5 (≈ 25 µM)	3.13 (≈ 6.27 µM)	1.56 (≈ 3.12 µM)	> 100	12.5 (≈ 25 µM)	12.5 (≈ 25 µM)	12.5 (≈ 25 µM)	100 (≈ 200 µM)	MIC [17]: 12.5 µg/mL (≈ 25 µM); MIC (Marganella morganii 1510): 100 µg/mL (≈ 200 µM)
CO/N=C(\C(=O)NC1C(=O)N2C(C(=O)O)=C(SCC3CCOC3)CS[C@H]12)c1csc(N)n1 (stereo partly drawn) [Compound No. 27, 7-[(Z)-2-(2-aminothiazol-4-yl)-2-methoxyiminoacetamido]-3-(tetrahydrofuran-3-yl)methylthio-3-cephem-4-carboxylic acid]	6.25 (≈ 12.5 µM)	50 (≈ 100 µM)	0.78 (≈ 1.56 µM)	100 (≈ 200 µM)	0.39 (≈ 0.781 µM)	> 100	0.78 (≈ 1.56 µM)	> 100	50 (≈ 100 µM)	0.78 (≈ 1.56 µM)	3.13 (≈ 6.27 µM)	1.56 (≈ 3.12 µM)	3.13 (≈ 6.27 µM)	0.2 (≈ 0.4 µM)	0.78 (≈ 1.56 µM)	> 100	0.39 (≈ 0.781 µM)	6.25 (≈ 12.5 µM)	0.78 (≈ 1.56 µM)	50 (≈ 100 µM)	MIC [17]: 0.2 µg/mL (≈ 0.4 µM); MIC (Marganella morganii 1510): 25 µg/mL (≈ 50 µM)
CO/N=C(\C(=O)NC1C(=O)N2C(C(=O)O)=C(SCC3COCO3)CS[C@H]12)c1csc(N)n1 (stereo partly drawn) [Compound No. 29, 7 - [(Z)-2-(2-aminothiazol-4-yl)-2-methoxyiminoacetamido]-3-(1,3-dioxolan-4-yl)methylthio-3-cephem-4-carboxylic acid]	6.25 (≈ 12.5 µM)	50 (≈ 99.7 µM)	0.39 (≈ 0.778 µM)	> 100	0.39 (≈ 0.778 µM)	> 100	0.39 (≈ 0.778 µM)	> 100	50 (≈ 99.7 µM)	0.78 (≈ 1.56 µM)	3.13 (≈ 6.24 µM)	1.56 (≈ 3.11 µM)	3.13 (≈ 6.24 µM)	0.1 (≈ 0.199 µM)	0.78 (≈ 1.56 µM)	> 100	0.2 (≈ 0.399 µM)	6.25 (≈ 12.5 µM)	0.39 (≈ 0.778 µM)	50 (≈ 99.7 µM)	MIC [17]: 0.2 µg/mL (≈ 0.399 µM); MIC (Marganella morganii 1510): 50 µg/mL (≈ 99.7 µM)
CO/N=C(\C(=O)NC1C(=O)N2C(C(=O)O)=C(SCC3CCOCC3)CS[C@H]12)c1csc(N)n1 (stereo partly drawn) [Compound No. 31, 7-[(Z)-2-(2-aminothiazol-4-yl)-2-methoxyiminoacetamido]-3-(tetrahydropyran-4-yl)methylthio-3-cephem-4-carboxylic acid]	6.25 (≈ 12.2 µM)	25 (≈ 48.7 µM)	1.56 (≈ 3.04 µM)	> 100	0.78 (≈ 1.52 µM)	> 100	1.56 (≈ 3.04 µM)	> 100	25 (≈ 48.7 µM)	1.56 (≈ 3.04 µM)	3.13 (≈ 6.09 µM)	1.56 (≈ 3.04 µM)	3.13 (≈ 6.09 µM)	0.78 (≈ 1.52 µM)	1.56 (≈ 3.04 µM)	100 (≈ 195 µM)	1.56 (≈ 3.04 µM)	12.5 (≈ 24.3 µM)	1.56 (≈ 3.04 µM)	50 (≈ 97.3 µM)	MIC [17]: 0.78 µg/mL (≈ 1.52 µM); MIC (Marganella morganii 1510): 100 µg/mL (≈ 195 µM)
CO/N=C(\C(=O)NC1C(=O)N2C(C(=O)O)=C(SCC3COCOC3)CS[C@H]12)c1csc(N)n1 (stereo partly drawn) [Compound No. 33, 7-[(Z)-2-(2-aminothiazol-4-yl)-2-methoxyiminoacetamido]-3-(1,3-dioxan-5-yl)methylthio-3-cephem-4-carboxylic acid]	6.25 (≈ 12.1 µM)	50 (≈ 97 µM)	0.78 (≈ 1.51 µM)	> 100	0.39 (≈ 0.756 µM)	> 100	0.78 (≈ 1.51 µM)	> 100	50 (≈ 97 µM)	0.78 (≈ 1.51 µM)	0.78 (≈ 1.51 µM)	0.78 (≈ 1.51 µM)	3.13 (≈ 6.07 µM)	0.2 (≈ 0.388 µM)	0.78 (≈ 1.51 µM)	> 100	0.39 (≈ 0.756 µM)	6.25 (≈ 12.1 µM)	0.78 (≈ 1.51 µM)	50 (≈ 97 µM)	MIC [17]: 0.1 µg/mL (≈ 0.194 µM); MIC (Marganella morganii 1510): 100 µg/mL (≈ 194 µM)
Nc1nc(/C(=N/O)C(=O)NC2C(=O)N3C(C(=O)O)=C(SCC4COCO4)CSC23)cs1 (stereo not drawn) [Compound No. 35]	12.5 (≈ 25.6 µM)	50 (≈ 103 µM)	0.39 (≈ 0.8 µM)	12.5 (≈ 25.6 µM)	0.2 (≈ 0.41 µM)	> 100	1.56 (≈ 3.2 µM)	12.5 (≈ 25.6 µM)	> 100	1.56 (≈ 3.2 µM)	12.5 (≈ 25.6 µM)	0.39 (≈ 0.8 µM)	3.13 (≈ 6.42 µM)	12.5 (≈ 25.6 µM)	0.2 (≈ 0.41 µM)	> 100	0.39 (≈ 0.8 µM)	100 (≈ 205 µM)	0.39 (≈ 0.8 µM)	50 (≈ 103 µM)	MIC [17]: 0.05 µg/mL (≈ 0.103 µM); MIC (Marganella morganii 1510): 50 µg/mL (≈ 103 µM)
Nc1nc(/C(=N/O)C(=O)NC2C(=O)N3C(C(=O)O)=C(SCC4CCOCC4)CS[C@H]23)cs1 (stereo partly drawn) [Compound No. 37, 7-[(Z)-2-(2-aminothiazol-4-yl)-2-hydroxyiminoacetamido]-3-(tetrahydropyran-4-yl)methylthio-3-cephem-4-carboxylic acid]	12.5 (≈ 25 µM)	50 (≈ 100 µM)	3.13 (≈ 6.27 µM)	25 (≈ 50 µM)	0.78 (≈ 1.56 µM)	> 100	3.13 (≈ 6.27 µM)	50 (≈ 100 µM)	> 100	6.25 (≈ 12.5 µM)	12.5 (≈ 25 µM)	0.39 (≈ 0.781 µM)	6.25 (≈ 12.5 µM)	3.13 (≈ 6.27 µM)	0.39 (≈ 0.781 µM)	> 100	3.13 (≈ 6.27 µM)	50 (≈ 100 µM)	3.13 (≈ 6.27 µM)	100 (≈ 200 µM)	MIC [17]: 0.1 µg/mL (≈ 0.2 µM); MIC (Marganella morganii 1510): 100 µg/mL (≈ 200 µM)
